From US9839642B2, “Beta-tetrazolyl-propionic acids as metallo-beta-lactamase inhibitors” (priority 2014, dated 2017)

Experiments:
IMP-1 = IMP-1 (Serratia marcescens, UniProt P52699); experiment: Enzyme activity: determination of IC50, fluorescence assay with CCF2-FA substrate; format: biochemical; details: enzyme 2 pM, CCF2-FA 1.25 μM, 2 hours at 25° C.; read-out: IMP1 IC50
In short: (§1)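 100 mM KH2PO4 pH 7 + 0.005% Tween-20 + 10 μM ZnSO4; CCF2-FA 1.25 μM; NDM-1 1 pM, IMP-1 2 pM, VIM-1 30 pM; cpd 20–0.00063 μM final, DMSO 1:50. 2 h, 25° C. Ex 405/em 460 nm; IC50, 4-param fit.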

NDM-1 = NDM-1 (Klebsiella pneumoniae, UniProt C7C422); experiment: as above; format: biochemical; details: enzyme 1 pM, CCF2-FA 1.25 μM, 2 hours at 25° C.; read-out: NDM1 IC50
NDM-1, sequence (C7C422 29-270, looked up, species assumed): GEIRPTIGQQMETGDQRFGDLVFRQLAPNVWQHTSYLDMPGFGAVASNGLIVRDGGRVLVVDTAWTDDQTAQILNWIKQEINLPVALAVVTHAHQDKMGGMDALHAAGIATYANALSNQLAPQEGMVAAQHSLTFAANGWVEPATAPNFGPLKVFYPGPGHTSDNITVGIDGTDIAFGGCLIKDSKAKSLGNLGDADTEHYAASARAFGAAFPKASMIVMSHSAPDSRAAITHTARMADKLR
In short: as §1

VIM-1 = VIM-1 (Pseudomonas aeruginosa, UniProt A0A0F7KYQ8); experiment: as above; format: biochemical; details: enzyme 30 pM, CCF2-FA 1.25 μM, 2 hours at 25° C.; read-out: VIM1 IC50
In short: as §1

[1] = test system: Escherichia coli expressing NDM-1 (CLB30005); experiment: Antibiotic potentiation activity: synergistic concentration (MITC95) with imipenem, growth by OD600; format: cell-based; details: 95% inhibition of bacterial growth, strain CLB30005
In short: (§2)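 MITC95 = lowest inhibitor concentration giving 95% growth inhibition, read by absorbance after 22–24 h at 35° C. Compound range 200 μM to 0.195 μM, imipenem fixed at 1 or 4 μg/ml, bacteria in 1.1×CAMHB from saline suspension diluted 1:100.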

[2] = test system: Klebsiella pneumoniae expressing VIM-1 (IHMA599644); experiment: as above; format: cell-based; details: 95% inhibition of bacterial growth, strain IHMA599644
In short: as §2

[3] = test system: Serratia marcescens expressing IMP-1 (CL5741); experiment: as above; format: cell-based; details: 95% inhibition of bacterial growth, strain CL5741
In short: as §2

IMP-1, sequence (P52699 19-246, looked up, species assumed): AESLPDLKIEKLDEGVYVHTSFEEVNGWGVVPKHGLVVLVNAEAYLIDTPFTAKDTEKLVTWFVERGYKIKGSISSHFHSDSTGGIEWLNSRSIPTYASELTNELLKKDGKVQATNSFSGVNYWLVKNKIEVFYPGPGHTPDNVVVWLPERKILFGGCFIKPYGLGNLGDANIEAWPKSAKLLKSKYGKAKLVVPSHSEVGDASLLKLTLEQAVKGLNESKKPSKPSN

Compound: CCC[C@H](C(=O)O)[C@H](Cc1ccc(-c2ccc(N)nc2)cc1)c1nn[nH]n1 [Example 200, (2S)-2-[(1S)-2-[4-(6-aminopyridin-3-yl)phenyl]-1-(2H-tetrazol-5-yl)ethyl]pentanoic acid]
- IC50 (IMP-1): 34 nM
- IC50 (NDM-1): 8.1 nM
- IC50 (VIM-1): 1.5 nM
- NDM1 EC30005 MITC95 [1]: 4.7 µM
- VIM1 KP599644 MITC95 [2]: 18.8 µM
- IMP1 SM5741 MITC95 [3]: 9.4 µM

Compound: CCC[C@H](C(=O)O)[C@H](Cc1ccc(-c2cccc(C(N)=O)c2)cc1)c1nn[nH]n1 [Example 201, (2S)-2-[(1S)-2-(3′-carbamoylbiphenyl-4-yl)-1-(2H-tetrazol-5-yl)ethyl]pentanoic acid]
- IC50 (IMP-1): 29 nM
- IC50 (NDM-1): 9 nM
- IC50 (VIM-1): 2.1 nM
- NDM1 EC30005 MITC95 [1]: 7.8 µM
- VIM1 KP599644 MITC95 [2]: 62 µM
- IMP1 SM5741 MITC95 [3]: 12.5 µM

Compound: CCC[C@H](C(=O)O)[C@H](Cc1ccc(-c2ccc(C(=O)NC)cc2)cc1)c1nn[nH]n1 [Example 202, (2S)-2-[(1S)-2-[4′-(methylcarbamoyl)biphenyl-4-yl]-1-(2H-tetrazol-5-yl)ethyl]pentanoic acid]
- IC50 (IMP-1): 22 nM
- IC50 (NDM-1): 5.9 nM
- IC50 (VIM-1): 2.3 nM
- NDM1 EC30005 MITC95 [1]: 9.4 µM
- VIM1 KP599644 MITC95 [2]: 50 µM
- IMP1 SM5741 MITC95 [3]: 4.7 µM

Compound: CCC[C@H](C(=O)O)[C@H](Cc1ccc(-c2ccc(N3CCOCC3)nc2)cc1)c1nn[nH]n1 [Example 203, (2S)-2-[(1S)-2-[4-(6-morpholin-4-ylpyridin-3-yl)phenyl]-1-(2H-tetrazol-5-yl)ethyl]pentanoic acid]
- IC50 (IMP-1): 60 nM
- IC50 (NDM-1): 14 nM
- IC50 (VIM-1): 4.3 nM
- NDM1 EC30005 MITC95 [1]: 9.4 µM
- VIM1 KP599644 MITC95 [2]: 200 µM
- IMP1 SM5741 MITC95 [3]: 9.4 µM

Compound: CCC[C@H](C(=O)O)[C@H](Cc1ccc(-c2cnc(N3CCCCC3)s2)cc1)c1nn[nH]n1 [Example 204, (2S)-2-[(1S)-2-[4-(2-piperidin-1-yl-1,3-thiazol-5-yl)phenyl]-1-(2H-tetrazol-5-yl)ethyl]pentanoic acid]
- IC50 (IMP-1): 26 nM
- IC50 (NDM-1): 3.4 nM
- IC50 (VIM-1): 2.1 nM
- NDM1 EC30005 MITC95 [1]: 3.9 µM
- VIM1 KP599644 MITC95 [2]: 100 µM
- IMP1 SM5741 MITC95 [3]: 4.7 µM

Compound: CCC[C@H](C(=O)O)[C@H](Cc1ccc(-c2ccccc2CN2CCCCC2)cc1)c1nn[nH]n1 [Example 205, (2S)-2-[(1S)-2-[2′-(piperidin-1-ylmethyl)biphenyl-4-yl]-1-(2H-tetrazol-5-yl)ethyl]pentanoic acid]
- IC50 (IMP-1): 63 nM
- IC50 (NDM-1): 500 nM
- IC50 (VIM-1): 360 nM
- NDM1 EC30005 MITC95 [1]: 50 µM
- VIM1 KP599644 MITC95 [2]: >200 µM
- IMP1 SM5741 MITC95 [3]: 7.8 µM

Compound: CCC[C@H](C(=O)O)[C@H](Cc1ccc(-c2cccc(CN3CCCCC3)c2)cc1)c1nn[nH]n1 [Example 206, (2S)-2-[(1S)-2-[3′-(piperidin-1-ylmethyl)biphenyl-4-yl]-1-(2H-tetrazol-5-yl)ethyl]pentanoic acid]
- IC50 (IMP-1): 130 nM
- IC50 (NDM-1): 82 nM
- IC50 (VIM-1): 7.2 nM
- NDM1 EC30005 MITC95 [1]: 18.8 µM
- VIM1 KP599644 MITC95 [2]: 50 µM
- IMP1 SM5741 MITC95 [3]: 18.8 µM

Compound: CCC[C@H](C(=O)O)[C@H](Cc1ccc(-c2cccc(CN3CCOCC3)c2)cc1)c1nn[nH]n1 [Example 207, (2S)-2-[(1S)-2-[3′-(morpholin-4-ylmethyl)biphenyl-4-yl]-1-(2H-tetrazol-5-yl)ethyl]pentanoic acid]
- IC50 (IMP-1): 100 nM
- IC50 (NDM-1): 64 nM
- IC50 (VIM-1): 8 nM
- NDM1 EC30005 MITC95 [1]: 16 µM
- VIM1 KP599644 MITC95 [2]: 150 µM
- IMP1 SM5741 MITC95 [3]: 16 µM

Compound: CCC[C@H](C(=O)O)[C@H](Cc1ccc(-c2csc(N3CCOCC3)n2)cc1)c1nn[nH]n1 [Example 208, (2S)-2-[(1S)-2-[4-(2-morpholin-4-yl-1,3-thiazol-4-yl)phenyl]-1-(2H-tetrazol-5-yl)ethyl]pentanoic acid]
- IC50 (IMP-1): 100 nM
- IC50 (NDM-1): 61 nM
- IC50 (VIM-1): 16 nM
- NDM1 EC30005 MITC95 [1]: 25 µM
- VIM1 KP599644 MITC95 [2]: 200 µM
- IMP1 SM5741 MITC95 [3]: 18.8 µM

Compound: CCC[C@H](C(=O)O)[C@H](Cc1ccc(-c2cccc(CN)c2)cc1)c1nn[nH]n1 [Example 210, (2S)-2-[(1S)-2-[3′-(aminomethyl)biphenyl-4-yl]-1-(2H-tetrazol-5-yl)ethyl]pentanoic acid]
- IC50 (IMP-1): 130 nM
- IC50 (NDM-1): 100 nM
- IC50 (VIM-1): 8.2 nM
- NDM1 EC30005 MITC95 [1]: 6.2 µM
- VIM1 KP599644 MITC95 [2]: 18.8 µM
- IMP1 SM5741 MITC95 [3]: 12.5 µM

Compound: CCC[C@H](C(=O)O)[C@H](Cc1ccc(-c2ccc(CO)cc2)cc1)c1nn[nH]n1 [Example 211, (2S)-2-[(1S)-2-[4′-(hydroxymethyl)biphenyl-4-yl]-1-(2H-tetrazol-5-yl)ethyl]pentanoic acid]
- IC50 (IMP-1): 20 nM
- IC50 (NDM-1): 12 nM
- IC50 (VIM-1): 3.4 nM
- NDM1 EC30005 MITC95 [1]: 3.1 µM
- VIM1 KP599644 MITC95 [2]: 25 µM
- IMP1 SM5741 MITC95 [3]: 2.3 µM

Compound: CCC[C@H](C(=O)O)[C@H](Cc1ccc(-c2cn(C)c(=O)n(C)c2=O)cc1)c1nn[nH]n1 [Example 212, (2S)-2-[(1S)-2-[4-(1,3-dimethyl-2,4-dioxo-1,2,3,4-tetrahydropyrimidin-5-yl)phenyl]-1-(2H-tetrazol-5-yl)ethyl]pentanoic acid]
- IC50 (IMP-1): 91 nM
- IC50 (NDM-1): 31 nM
- IC50 (VIM-1): 15 nM
- NDM1 EC30005 MITC95 [1]: 18.8 µM
- VIM1 KP599644 MITC95 [2]: 150 µM
- IMP1 SM5741 MITC95 [3]: 18.8 µM

Compound: CCC[C@H](C(=O)O)[C@H](Cc1ccc(-c2ccc(C(C)(C)O)nc2)cc1)c1nn[nH]n1 [Example 213, (2S)-2-[(1S)-2-{4-[6-(1-hydroxy-1-methylethyl)pyridin-3-yl]phenyl}-1-(2H-tetrazol-5-yl)ethyl]pentanoic acid]
- IC50 (IMP-1): 120 nM
- IC50 (NDM-1): 28 nM
- IC50 (VIM-1): 17 nM
- NDM1 EC30005 MITC95 [1]: 9.4 µM
- VIM1 KP599644 MITC95 [2]: 75 µM
- IMP1 SM5741 MITC95 [3]: 18.8 µM

Compound: CCC[C@H](C(=O)O)[C@H](Cc1ccc(-c2ccccc2CN2CCOCC2)cc1)c1nn[nH]n1 [Example 214, (2S)-2-[(1S)-2-[2′-(morpholin-4-ylmethyl)biphenyl-4-yl]-1-(2H-tetrazol-5-yl)ethyl]pentanoic acid]
- IC50 (IMP-1): 10 nM
- IC50 (NDM-1): 24 nM
- IC50 (VIM-1): 180 nM
- NDM1 EC30005 MITC95 [1]: 7.8 µM
- VIM1 KP599644 MITC95 [2]: >200 µM
- IMP1 SM5741 MITC95 [3]: 2.0 µM

Compound: CCC[C@H](C(=O)O)[C@H](Cc1ccc(-c2cnn(C)c2)cc1)c1nnn[nH]1 [Example 233, (2S)-2-[(1S)-2-[4-(1-methyl-1H-pyrazol-4-yl)phenyl]-1-(1H-tetrazol-5-yl)ethyl]pentanoic acid]
- IC50 (IMP-1): 52 nM
- IC50 (NDM-1): 18 nM
- IC50 (VIM-1): 4 nM
- NDM1 EC30005 MITC95 [1]: 18.8 µM
- VIM1 KP599644 MITC95 [2]: 75 µM
- IMP1 SM5741 MITC95 [3]: 16 µM

Compound: CCC[C@H](C(=O)O)[C@H](Cc1ccc(-c2ccc3c(c2)CNC3=O)cc1)c1nnn[nH]1 [Example 234, (2S)-2-[(1S)-2-[4-(1-oxo-2,3-dihydro-1H-isoindol-5-yl)phenyl]-1-(1H-tetrazol-5-yl)ethyl]pentanoic acid]
- IC50 (IMP-1): 56 nM
- IC50 (NDM-1): 17 nM
- IC50 (VIM-1): 2.9 nM
- NDM1 EC30005 MITC95 [1]: 25 µM
- VIM1 KP599644 MITC95 [2]: 50 µM
- IMP1 SM5741 MITC95 [3]: 7.0 µM

Compound: CCC[C@H](C(=O)O)[C@H](Cc1ccc(-c2c(C)nn(C)c2C)cc1)c1nnn[nH]1 [Example 235, (2S)-2-{(1S)-1-(1H-tetrazol-5-yl)-2-[4-(1,3,5-trimethyl-1H-pyrazol-4-yl)phenyl]ethyl}pentanoic acid]
- IC50 (IMP-1): 5.8 nM
- IC50 (NDM-1): 8.3 nM
- IC50 (VIM-1): 7.6 nM
- NDM1 EC30005 MITC95 [1]: 100 µM
- VIM1 KP599644 MITC95 [2]: >200 µM
- IMP1 SM5741 MITC95 [3]: 0.78 µM

Compound: CCC[C@H](C(=O)O)[C@H](Cc1ccc(-c2ccc3c(c2)CNCC3)cc1)c1nnn[nH]1 [Example 236, (2S)-2-[(1S)-2-[4-(1,2,3,4-tetrahydroisoquinolin-7-yl)phenyl]-1-(1H-tetrazol-5-yl)ethyl]pentanoic acid]
- IC50 (IMP-1): 71 nM
- IC50 (NDM-1): 99 nM
- IC50 (VIM-1): 4.4 nM
- NDM1 EC30005 MITC95 [1]: 12.5 µM
- VIM1 KP599644 MITC95 [2]: 50 µM
- IMP1 SM5741 MITC95 [3]: 7.8 µM

Compound: CCC[C@H](C(=O)O)[C@H](Cc1ccc(-c2ccc3c(c2)CCNC3)cc1)c1nnn[nH]1 [Example 237, (2S)-2-[(1S)-2-[4-(1,2,3,4-tetrahydroisoquinolin-6-yl)phenyl]-1-(1H-tetrazol-5-yl)ethyl]pentanoic acid]
- IC50 (IMP-1): 88 nM
- IC50 (NDM-1): 88 nM
- IC50 (VIM-1): 4 nM
- NDM1 EC30005 MITC95 [1]: 9.4 µM
- VIM1 KP599644 MITC95 [2]: 38 µM
- IMP1 SM5741 MITC95 [3]: 4.7 µM

Compound: CCC[C@H](C(=O)O)[C@H](Cc1ccc(-c2cccc3c2CNC3=O)cc1)c1nnn[nH]1 [Example 238, (2S)-2-[(1S)-2-[4-(1-oxo-2,3-dihydro-1H-isoindol-4-yl)phenyl]-1-(1H-tetrazol-5-yl)ethyl]pentanoic acid]
- IC50 (IMP-1): 49 nM
- IC50 (NDM-1): 6.5 nM
- IC50 (VIM-1): 1.7 nM
- NDM1 EC30005 MITC95 [1]: 50 µM
- VIM1 KP599644 MITC95 [2]: 200 µM
- IMP1 SM5741 MITC95 [3]: 6.2 µM
